The values that follow come from patent publication US5260340A, “Prevention and amelioration of acetaminophen toxicity with beta-carotene” (priority 1992, dated 1993).

For one data set, the system named is mice. Put plainly: Feeding of mice following IP injection of a lethal dose of acetaminophen. Format: in vivo.
For data set [1] the following is noted: cited from earlier work.
The conditions of data set [2]: cited from earlier work. This is another data set of the same source.
In the next data set the test system is liver. The note with it: cited from earlier work.
Data set [3] deals with acetaminophen toxicity. The data set is described as follows: Prevention of acetaminophen toxicity, pre-administration of beta-carotene in the diet: survival after IP acetaminophen 800 mg/kg. Format: in vivo, 129/ReJ mice. The note with it: for mice alive seventy-two hours after injection: 800 mg/kg acetaminophen IP; for Survival 72 Hours After Ingestion (%) / Survival 72 Hours After Ingestion, Survivors/Sample: acetaminophen 800 mg/kg IP. The protocol: (§1) The total amount of beta-carotene consumed by mice in each experiment was computed using the estimates that a 25 gram mouse will consume […] of food and 25 ml/day of water, under normal conditions.
Nine 129/ReJ mice, (The Jackson Laboratory-Bar Harbor, Me.) were pre-fed a diet of Modified HLR 341 with 10 percent of 10% beta-carotene beadlets, 1.6 mg/kg of vitamin K, and 4,000 IU/kg of vitamin A (Dyets, Inc.--Bethlehem, Pa.) for a period of five months. Each mouse ingested about 7.5 grams of beta-carotene.
Each mouse then received an intraperitoneal (IP) injection of 800 mg/kg of acetaminophen (Fisher Scientific-Pittsburgh, Pa.) dissolved in 20% Tween 80 (Sigma Chemical Company -- St. Louis, Mo.) in saline. […]

For data set [4] the following is noted: human; not yet determined; cited from earlier work.
The next data set relates to cytochrome P450. Particulars: fourteen days of dietary beta-carotene supplement; mouse liver homogenates; cited from earlier work.
The subject of data set [5] is toxic side effects of antibiotics. Particulars: plants; cited from earlier work.
The subject of data set [6] is Kupffer cells of the liver. Particulars: in vivo; cited from earlier work.
The subject of data set [7] is acetaminophen toxicity. The data set is described as follows: Antidotal treatment of acetaminophen toxicity (Example 7): survival and weight restoration. Format: in vivo, 129/ReJ mice. The protocol:
as §1
(§2) The design of this experiment was predicated on the clinical time sequence involved in, or associated with, acetaminophen overdose and toxicity, and the biological response of mice to lethal injections of this drug. When a human ingests a toxic, potentially lethal dose of acetaminophen, few if any, clinical signs manifest during the first forty-eight hours. The patient remains alert and can take food voluntarily or by a nasal gastric tube. […] Because the time course of human toxicity implies that a patient could orally ingest an antidote such as beta-carotene within the forty-eight hour period immediately following an overdose, it was proposed that a comparative animal model would be feeding subjects with a beta-carotene diet for forty-eight hours prior to the administration of a known lethal dose of acetaminophen.
Eight 129/ReJ mice (The Jackson Laboratory) were wholly or partially starved for seventy-two hours to enhance their appetite. Mean weight loss during this period was 13%. […] Each mouse ingested about 0.1 gram of beta-carotene by the forty-eighth hour. […]

The test system of data set [8] is acetaminophen toxicity. Put plainly: Prevention of acetaminophen toxicity, simultaneous administration (Example 5): survival. The note with it: about 20 mg total beta-carotene per mouse by hour 24; 1% acetaminophen in water, 500 mg/kg IP at hours 24 and 30. Format: in vivo, DBA/2J mice. The protocol: as §1
Four DBA/2J mice (The Jackson Laboratory) were weighed. Food was removed, and the mice were given drinking bottles containing a one percent aqueous solution of acetaminophen (Fisher Scientific) and 60 mg of beta-carotene per 100 ml ("Twinlab"--Twin Laboratories--Ronkonkoma, N.Y.). After twenty-two hours, the mice were given a Modified HLR 341 diet having 10 percent of 10% beta-carotene beadlets, 10% safflower oil food pellets, 6% lard, 1.6 mg/kg of vitamin K, and 4000 IU/kg of vitamin A (Dyets, Inc.). Each mouse ingested about 20 mg total beta-carotene from the water and food by the twenty-fourth hour.
At the twenty-fourth and thirtieth hours, all of the mice received an IP injection of 500 mg/kg of acetaminophen dissolved in 20% Tween 80 (Sigma Chemical Co.) in saline. At the forty-eighth hour, all of the mice were weighed, and the drinking bottles were filled with pure water.

The test system of a further data set is toxicity due to aspirin. Particulars: in vivo; cited from earlier work.
The conditions of data set [9]: mammals; cited from earlier work.
Data set [10] concerns acetaminophen toxicity. Put plainly: Prevention of acetaminophen toxicity, simultaneous administration (Example 6): survival and body weight. Format: in vivo, 129ReJ mice. The note with it: beta-carotene diet. The protocol: as §1
Ten 129ReJ mice (The Jackson Laboratory) were starved for twelve hours during which time they lost 4% of their original weight. The mice were then given drinking bottles containing a 0.1% aqueous solution of acetaminophen (Fisher Scientific). The mice were given a Modified HLR 341 diet with 10 percent of 10% beta-carotene beadlets, 10% safflower oil, 6% lard, 1.6 mg/kg of vitamin K, and 4000 IU/kg of vitamin A (Dyets, Inc.). The food regimen was continued throughout the remainder of the experiment.
At the sixtieth hour, all of the mice received an IP injection of 300 mg/kg of acetaminophen, and the drinking bottles were filled with pure water.

For data set [11], the system named is acetaminophen toxicity. The data set is described as follows: Antidotal treatment of acetaminophen toxicity (Example 8): survival and weight regain. Format: in vivo, DBA/2J mice. The protocol: as §1, §2
Twelve DBA/2J mice (The Jackson Laboratory) were weighed and starved for seventy-two hours. The mean weight loss during this time was 27%. The mice received a Modified HLR 341 diet with 10 percent of 10% beta-carotene beadlets, 10% safflower oil, 6% lard, 1.6 mg/kg of vitamin K, and […] of vitamin A (Dyets, Inc.). The mice regained 86% of their original weight. Each mouse ingested about 0.1 gram of beta-carotene by the forty-eighth hour.
After forty-eight hours on the experimental diet, the mice received an IP injection of 800 mg/kg of acetaminophen (Fisher Scientific) dissolved in 20% Tween 80 (Sigma Chemical Co.) in saline.
The mice were reweighed, and a second injection of 600 mg/kg of acetaminophen dissolved in 20% Tween 80 in saline was given to each mouse. By seventy hours after the first injection, 92% of the mice were alive.

Data set [12] relates to aflatoxin-induced liver toxicity. The note with it: chickens; simultaneous administration; cited from earlier work.
Data set [13] concerns duodenal ulcers and stress ulcers. Particulars: rats fed 3-, 4-diaminotoluene; cited from earlier work.
The mark [14] stands for this setting: forty-eight hours on beta-carotene diet after starvation, before acetaminophen.
[15] abbreviates: acetaminophen in water, 600 mg/kg IP after hour 48 and 300 mg/kg IP at hour 60.

Like-named read-outs stand apart in the source and are kept apart here.

`CC(=O)Nc1ccc(O)cc1` [acetaminophen]: the “feeding following IP injection of a lethal dose” value with mice is recorded as “cease to feed”. Further, the solubility in water result in [1] is on record as “soluble in water”. Further, the half-life result in data set [2] (normal dosages, normal patient) is listed as “about 21/2”; in [2] (severe hepatocellular injury) it was “over 4 hours”. Also, the “time of hepatic failure after ingestion” value with liver (acute acetaminophen toxicity) is “three to five”. In the data set on liver (acute ingestion), the “ingestion at which mortality is significantly higher” value is listed as “exceeds 25 grams”. The toxic dosage entry in the data set with liver (adult) is on record as “greater than 10 grams”; in the data set on liver (child), at least 140 milligrams per kilogram. In the data set with liver (long term dosages, as low as), the “dosage that has resulted in chronic liver disease” value is “three”.

Turning to `CC1=C(/C=C/C(C)=C/C=C/C(C)=C/C=C/C=C(C)/C=C/C=C(C)/C=C/C2=C(C)CCCC2(C)C)C(C)(C)CCC1` [beta-carotene], the “survival rate compared with Comparative Examples 1A*-4A*” value with acetaminophen toxicity [3] (administration before challenge with toxic amounts of acetaminophen) is recorded as “increases the survival rate significantly”. Further, the “mice alive seventy-two hours after injection” value is on record as “all mice were alive” in the data set with acetaminophen toxicity [3] (nine mice, pre-fed five months (about 7.5 grams beta-carotene)); “five of the mice were alive” in the data set on acetaminophen toxicity [3] (nineteen mice, pre-fed seven days (about 0.35 grams beta-carotene)); “thirteen of the mice were alive” in the data set on acetaminophen toxicity [3] (twenty mice, pre-fed five weeks (about 1.75 grams beta-carotene)); “twenty of the mice were alive” in the data set on acetaminophen toxicity [3] (twenty mice, pre-fed twenty-three days (about 1.15 grams beta-carotene)); 63% with acetaminophen toxicity [7] (beta-carotene diet for forty-eight hours (about 0.1 gram per mouse), 800 mg/kg acetaminophen IP). Also, the “Survival 72 Hours After Ingestion (%)” value came to 100% with acetaminophen toxicity [3] (pre-feeding 5 Months), 65% with acetaminophen toxicity [3] (pre-feeding 5 Weeks), 26% in the data set with acetaminophen toxicity [3] (pre-feeding 7 Days) and 100% in the data set with acetaminophen toxicity [3] (pre-feeding 23 Days). Further, the “Survival 72 Hours After Ingestion, Survivors/Sample” value was 9/9 in the data set with acetaminophen toxicity [3] (pre-feeding 5 Months), 13/20 in the data set on acetaminophen toxicity [3] (pre-feeding 5 Weeks), 5/19 with acetaminophen toxicity [3] (pre-feeding 7 Days) and 20/20 in the data set on acetaminophen toxicity [3] (pre-feeding 23 Days). For the same compound, the “safe upper limit (believed)” value in [4] is listed as “at least 1,000 mg/day”. Further, in the data set with cytochrome P450, the “cytochrome P450” value is “reduced cytochrome P450”. In addition, the “toxic side effects of antibiotics” value in data set [5] was “prevent the toxic side effects of antibiotics”. Besides, the “deposition in liver cells” value in [6] was “deposited in, and remains sequestered in, only the Kupffer cells of the liver”. The “restoration of original weight” value in the data set with acetaminophen toxicity [7] (setting [14]) stood at 98%. In addition, the “mice alive by the seventy-second hour” value in the data set on acetaminophen toxicity [8] was found to be 75%. In the data set on toxicity due to aspirin, the “adverse side effects and toxicity due to aspirin” value is “reduced adverse side effects and toxicity due to aspirin”. Also, the “oxidative cleavage at the central double bond” value in data set [9] is on record as “readily undergoes oxidative cleavage at the central double bond”. The “body weight after twenty-four hours” value with acetaminophen toxicity [10] (0.1% aqueous acetaminophen) is “regained or increased their original weight”. The “body weight after the forty-eighth hour” value in the data set on acetaminophen toxicity [10] (0.5% aqueous acetaminophen) was “maintenance of the mice's original weight”. For the same compound, the “animals alive at the seventy-second hour” value in the data set on acetaminophen toxicity [10] (setting [15]) is given as “all of the animals were alive”. Further, in the data set on acetaminophen toxicity [10] (setting [15]), the “mice alive at the one hundred fiftieth hour” value is reported as 90%. In addition, the “body weight, of original weights, at the one hundred fiftieth hour” value in the data set with acetaminophen toxicity [10] (acetaminophen in water, 600 and 300 mg/kg IP) is 93%. Also, in the data set on acetaminophen toxicity [11] (about 0.1 gram beta-carotene, acetaminophen 800 mg/kg IP then 600 mg/kg), the “mice alive by seventy hours after the first injection” value was determined as 92%. For the same compound, the “regain of original weight” value in the data set with acetaminophen toxicity [11] (setting [14]) came out at 86%. For the same compound, the “mice that had died by thirty-six hours after the injection” value with acetaminophen toxicity [11] (twelve mice, about 0.1 gram beta-carotene, 800 mg/kg acetaminophen IP) is “one mouse had died”. In data set [12], the aflatoxin-induced liver toxicity entry was “reduction of aflatoxin-induced liver toxicity”.

For the compound vitamin A, the “duodenal ulcers and stress ulcers” value in data set [13] was “could prevent duodenal ulcers and stress ulcers”. In addition, the “adverse side effects and toxicity due to aspirin” value in the data set on toxicity due to aspirin is “reduced adverse side effects and toxicity due to aspirin”.
